Measurements as given in patent US20150289513A1, “USE OF A COMPOUND COMPRISING A POLYFLUOROBENZYL MOIETY AGAINST INSECTICIDE-RESISTANT PESTS” (priority 2012, published 2015).

Legend:
[1] = test system: Anopheles funestus (metabolic-resistant strain FUMOZ-R); test: Glazed tile contact test, knock-down; format: in vivo
Description: (§1) To produce a suitable preparation Transfluthrin was dissolved in acetone. The active compound solution was pipetted onto a glazed tile and, after drying, adult mosquitoes of the species: • Anopheles gambiae (target-site-resistant and metabolic-resistant strain: RSPH), • Anopheles gambiae (target-site-resitant and metabolic-resistant strain: Tiassalé), • Anopheles gambiae (tar et-site-resitant and metabolic-resistant strain: Akron), • Anopheles gambiae (target-site-resistant strain: VK7), and • Anopheles funestus (metabolic-resistant strain FUMOZ-R) were placed onto the treated tile (each strain was tested on separate tiles). The exposition time was 30 minutes.
0.25 hours, 0.5 hours, 1 hour, 2 hour, 3 hour, 4 hour and 24 hours after contact to the treated surface, the knock-down proportion of the test animals in % was determined. Here, 100% (effect) means that all mosquitoes have been killed; 0% (effect) means that none of the mosquitoes have been killed.
(§2) Similarly as outlined in example 2 for Transfluthrin, Metofluthrin efficacy was assessed against • Anopheles gambiae (target-site-resistant and metabolic-resistant strain: RSPH), • Anopheles funestus (metabolic-resistant strain FUMOZ-R), and • Culex quinquefasciatus (metabolic-resistant to DDT; strain P00), with the results shown in Tables 10 to 12. 0.25 hours, 0.5 hours, 1 hour, 2 hour, 3 hour, 4 hour and 24 hours after contact to the treated surface, the knock-down proportion of the test animals in % is depicted in Tables 10 to 12. 100% (effect) means that all mosquitoes have been killed; 0% (effect) means that none of the mosquitoes have been killed.
Similarly as outlined in example 2 for Transfluthrin, Metofluthrin efficacy was assessed against • Anopheles gambiae (target-site-resistant and metabolic-resistant strain: RSPH), • Anopheles funestus (metabolic-resistant strain FUMOZ-R), and with the results shown in Tables […]. 0.25 hours, 0.5 hours, 1 hour, 2 hour and 3 hours after contact to the treated surface, the knock-down proportion of the test animals in % is depicted in Tables 13 to 14. 100% (effect) means that all mosquitoes have been killed; 0% (effect) means that none of the mosquitoes have been killed.

[2] = test system: Culex quinquefasciatus (metabolic-resistant to DDT; strain P00); test: Glazed tile contact test, knock-down; format: in vivo
Description: as §1, §2

[3] = 0.064 /ha, 0.25 h after contact

CC=CC1C(C(=O)OCc2c(F)c(F)c(COC)c(F)c2F)C1(C)C (centres unmarked) [Metofluthrin, 2,3,5,6-Tetrafluoro-4-(methoxymethyl)benzyl 2,2-dimethyl-3-(prop-1-en-1-yl)cyclopropanecarboxylate]
Effect % [1, 3]: 0%
Effect % ([1]; 0.064 /ha, 0.5 h after contact): 0%
Effect % ([1]; 0.064 /ha, 1 h after contact): 0%
Effect % ([1]; 0.064 /ha, 2 h after contact): 0%
Effect % ([1]; 0.064 /ha, 3 h after contact): 0%
Effect % ([1]; 0.064 /ha, 4 h after contact): 0%
Effect % ([1]; 0.064 /ha, 24 h after contact): 20%
Effect % ([1]; 0.32 /ha, 0.25 h after contact): 0%
Effect % ([1]; 0.32 /ha, 0.5 h after contact): 0%
Effect % ([1]; 0.32 /ha, 1 h after contact): 0%
Effect % ([1]; 0.32 /ha, 2 h after contact): 0%
Effect % ([1]; 0.32 /ha, 3 h after contact): 0%
Effect % ([1]; 0.32 /ha, 4 h after contact): 0%
Effect % ([1]; 0.32 /ha, 24 h after contact): 10%
Effect % ([1]; 1.6 /ha, 0.25 h after contact): 90%
Effect % ([1]; 1.6 /ha, 0.5 h after contact): 100%
Effect % ([1]; 1.6 /ha, 1 h after contact): 100%
Effect % ([1]; 1.6 /ha, 2 h after contact): 80%
Effect % ([1]; 1.6 /ha, 3 h after contact): 40%
Effect % ([1]; 1.6 /ha, 4 h after contact): 40%
Effect % ([1]; 1.6 /ha, 24 h after contact): 70%
Effect % ([1]; 8 /ha, 0.25 h after contact): 100%
Effect % ([1]; 8 /ha, 0.5 h after contact): 100%
Effect % ([1]; 8 /ha, 1 h after contact): 100%
Effect % ([1]; 8 /ha, 2 h after contact): 100%
Effect % ([1]; 8 /ha, 3 h after contact): 100%
Effect % ([1]; 8 /ha, 4 h after contact): 100%
Effect % ([1]; 8 /ha, 24 h after contact): 100%
Effect % ([1]; 40 /ha, 0.25 h after contact): 100%
Effect % ([1]; 40 /ha, 0.5 h after contact): 100%
Effect % ([1]; 40 /ha, 1 h after contact): 100%
Effect % ([1]; 40 /ha, 2 h after contact): 100%
Effect % ([1]; 40 /ha, 3 h after contact): 100%
Effect % ([1]; 40 /ha, 4 h after contact): 100%
Effect % ([1]; 40 /ha, 24 h after contact): 100%
Effect % ([1]; 200 /ha, 0.25 h after contact): 100%
Effect % ([1]; 200 /ha, 0.5 h after contact): 100%
Effect % ([1]; 200 /ha, 1 h after contact): 100%
Effect % ([1]; 200 /ha, 2 h after contact): 100%
Effect % ([1]; 200 /ha, 3 h after contact): 100%
Effect % ([1]; 200 /ha, 4 h after contact): 100%
Effect % ([1]; 200 /ha, 24 h after contact): 100%
Effect % ([1]; 1000 /ha, 0.25 h after contact): 100%
Effect % ([1]; 1000 /ha, 0.5 h after contact): 100%
Effect % ([1]; 1000 /ha, 1 h after contact): 100%
Effect % ([1]; 1000 /ha, 2 h after contact): 100%
Effect % ([1]; 1000 /ha, 3 h after contact): 100%
Effect % ([1]; 1000 /ha, 4 h after contact): 100%
Effect % ([1]; 1000 /ha, 24 h after contact): 100%
Effect % [2, 3]: 0%
Effect % ([2]; 0.064 /ha, 0.5 h after contact): 0%
Effect % ([2]; 0.064 /ha, 1 h after contact): 0%
Effect % ([2]; 0.064 /ha, 2 h after contact): 0%
Effect % ([2]; 0.064 /ha, 3 h after contact): 0%
Effect % ([2]; 0.064 /ha, 4 h after contact): 0%
Effect % ([2]; 0.064 /ha, 24 h after contact): 0%
Effect % ([2]; 0.32 /ha, 0.25 h after contact): 0%
Effect % ([2]; 0.32 /ha, 0.5 h after contact): 0%
Effect % ([2]; 0.32 /ha, 1 h after contact): 0%
Effect % ([2]; 0.32 /ha, 2 h after contact): 0%
Effect % ([2]; 0.32 /ha, 3 h after contact): 0%
Effect % ([2]; 0.32 /ha, 4 h after contact): 0%
Effect % ([2]; 0.32 /ha, 24 h after contact): 10%
Effect % ([2]; 1.6 /ha, 0.25 h after contact): 90%
Effect % ([2]; 1.6 /ha, 0.5 h after contact): 100%
Effect % ([2]; 1.6 /ha, 1 h after contact): 100%
Effect % ([2]; 1.6 /ha, 2 h after contact): 100%
Effect % ([2]; 1.6 /ha, 3 h after contact): 100%
Effect % ([2]; 1.6 /ha, 4 h after contact): 100%
Effect % ([2]; 1.6 /ha, 24 h after contact): 100%
Effect % ([2]; 8 /ha, 0.25 h after contact): 100%
Effect % ([2]; 8 /ha, 0.5 h after contact): 100%
Effect % ([2]; 8 /ha, 1 h after contact): 100%
Effect % ([2]; 8 /ha, 2 h after contact): 100%
Effect % ([2]; 8 /ha, 3 h after contact): 100%
Effect % ([2]; 8 /ha, 4 h after contact): 100%
Effect % ([2]; 8 /ha, 24 h after contact): 100%
Effect % ([2]; 40 /ha, 0.25 h after contact): 100%
Effect % ([2]; 40 /ha, 0.5 h after contact): 100%
Effect % ([2]; 40 /ha, 1 h after contact): 100%
Effect % ([2]; 40 /ha, 2 h after contact): 100%
Effect % ([2]; 40 /ha, 3 h after contact): 100%
Effect % ([2]; 40 /ha, 4 h after contact): 100%
Effect % ([2]; 40 /ha, 24 h after contact): 100%
Effect % ([2]; 200 /ha, 0.25 h after contact): 100%
Effect % ([2]; 200 /ha, 0.5 h after contact): 100%
Effect % ([2]; 200 /ha, 1 h after contact): 100%
Effect % ([2]; 200 /ha, 2 h after contact): 100%
Effect % ([2]; 200 /ha, 3 h after contact): 100%
Effect % ([2]; 200 /ha, 4 h after contact): 100%
Effect % ([2]; 200 /ha, 24 h after contact): 100%
Effect % ([2]; 1000 /ha, 0.25 h after contact): 100%
Effect % ([2]; 1000 /ha, 0.5 h after contact): 100%
Effect % ([2]; 1000 /ha, 1 h after contact): 100%
Effect % ([2]; 1000 /ha, 2 h after contact): 100%
Effect % ([2]; 1000 /ha, 3 h after contact): 100%
Effect % ([2]; 1000 /ha, 4 h after contact): 100%
Effect % ([2]; 1000 /ha, 24 h after contact): 100%

CC1(C)[C@H](C=C(Cl)Cl)[C@H]1C(=O)OCc1c(F)c(F)cc(F)c1F [Transfluthrin, (1R,3S)-3-(2,2-Dichlorovinyl)-2,2-dimethyl-1-cyclopropanecarboxylic acid (2,3,5,6-tetrafluorophenyl)methyl ester]
Effect % ([1]; 0.32 g/ha, 0.25 h after contact): 95%
Effect % ([1]; 0.32 g/ha, 0.5 h after contact): 100%
Effect % ([1]; 0.32 g/ha, 1 h after contact): 100%
Effect % ([1]; 0.32 g/ha, 2 h after contact): 60%
Effect % ([1]; 0.32 g/ha, 3 h after contact): 40%
Effect % ([1]; 0.32 g/ha, 4 h after contact): 40%
Effect % ([1]; 1.6 g/ha, 0.25 h after contact): 100%
Effect % ([1]; 1.6 g/ha, 0.5 h after contact): 100%
Effect % ([1]; 1.6 g/ha, 1 h after contact): 100%
Effect % ([1]; 1.6 g/ha, 2 h after contact): 100%
Effect % ([1]; 1.6 g/ha, 3 h after contact): 95%
Effect % ([1]; 1.6 g/ha, 4 h after contact): 100%
Effect % ([1]; 8 g/ha, 0.25 h after contact): 100%
Effect % ([1]; 8 g/ha, 0.5 h after contact): 100%
Effect % ([1]; 8 g/ha, 1 h after contact): 100%
Effect % ([1]; 8 g/ha, 2 h after contact): 100%
Effect % ([1]; 8 g/ha, 3 h after contact): 100%
Effect % ([1]; 8 g/ha, 4 h after contact): 100%
Effect % ([1]; 40 g/ha, 0.25 h after contact): 100%
Effect % ([1]; 40 g/ha, 0.5 h after contact): 100%
Effect % ([1]; 40 g/ha, 1 h after contact): 100%
Effect % ([1]; 40 g/ha, 2 h after contact): 100%
Effect % ([1]; 40 g/ha, 3 h after contact): 100%
Effect % ([1]; 40 g/ha, 4 h after contact): 100%
Effect % ([1]; 200 g/ha, 0.25 h after contact): 100%
Effect % ([1]; 200 g/ha, 0.5 h after contact): 100%
Effect % ([1]; 200 g/ha, 1 h after contact): 100%
Effect % ([1]; 200 g/ha, 2 h after contact): 100%
Effect % ([1]; 200 g/ha, 3 h after contact): 100%
Effect % ([1]; 200 g/ha, 4 h after contact): 100%
